What was measured:
[1] = test system: MSA patients; test: Quality of life, MSA-QoL self-questionnaire; format: in vivo, human; details: for MSA-QoL non-motor subscore, average difference compared to V1: V1 30.4±10.0 points; for MSA-QoL Motor subscore, average difference compared to V1: V1 40.1±19.0 points
Description: [table] At this visit, the investigator checks the patient's completed follow-up notebook (compliance, adverse event (AE), treatments) and carries out an interrogation and clinical examination, including the taking of standing and lying hemodynamic constants (SAP/DAP and HR) in order to check the tolerance and the possible occurrence of an adverse event. Compliance is also monitored. The patient is asked to complete a quality of life questionnaire (MSA-QoL). Quality of life—MSA—QoL: the MSA-QoL scale is organized into 4 subsections: • Motor sub-score: items 1 to 14; • Non-motor sub-score: items 15 to 26; • Emotional/social sub-score: items 27 to 40. • Overall satisfaction of quality of life of 100 mm to describe the patient's overall satisfaction with their life.

[2] = Blood level of NMN and NAD; format: in vivo, human
Description: The secondary objectives describe the characteristics of the patients who participated in the research, and aim at studying the pharmacokinetics of NMN in daily oral use and its impact on increasing NAD+ levels, and, in a preliminary way, at evaluating the potential benefits of NMN supplementation on the symptomatology related to multi-systemic atrophy syndrome MSA such as activities of daily living, motor disorders, orthostatic hypotension and autonomy using the validated […] scale. [table] Also, an aliquot of serum is stored at the laboratory at -80° C. for the determination of the patient's physiological NAD+ (Baseline) level by the promoter. The results are sent to the investigating responsible for checking these parameters (regarding the laboratory's standards) and validating or not the patient's eligibility. […] Also, an aliquot of acidified whole blood is stored at the AML at -80° C. for the determination of NMN metabolites. The hemodynamic constants (BP and HR standing up/lying down) are taken and entered in the patient's follow-up notebook by the nurse. The nurse also questions the patient on the possible occurrence of adverse events and checks the patient's compliance with treatment by filling in his or her follow-up notebook and pill box. On receipt, the investigating physician check the results: the blood parameters must be within the reference value limits and/or judged by the investigating physician as not clinically relevant. Otherwise, the patient is summoned without delay by the investigating physician to leave the study prematurely.

[3] = at 3 months, mITT and PP populations
[4] = mITT population, V3, p-value >0.05
[5] = mITT population, V4, p-value >0.05
[6] = 3-month supplementation with NMN (400 mg/day) per os, MSA patients, mITT and PP

blood levels of NAD [2, 6]: gradually increases
blood levels of NMN [2, 6]: gradually increases
blood NAD level, mean value ([2]; mITT population, V4 (n=8 subjects), NMN 400 mg/day per os, V1 16183.57±4205.09 (n=4 subjects)): 29194.12 ± 9706.95 ng/mL
SMILES: NC(=O)c1ccc[n+]([C@@H]2O[C@H](COP(=O)([O-])O)[C@@H](O)[C@H]2O)c1 [beta-NMN, nicotinamide mononucleotide]
Overall satisfaction with quality of life, scaling ([1]; PP population, V3 and V4 compared to V1): slight increase
MSA-QoL Emotional/Social sub-score [1, 3]: improvement
MSA-QoL Motor subscore [1, 3]: improvement
MSA-QoL non-motor subscore [1, 3]: improvement
Overall satisfaction with quality of life, scaling ([1]; mITT population, V2, V3 and V4 compared to V1, p-value >0.05): very slight decrease
MSA-QoL non-motor subscore, average difference compared to V1 ([1]; mITT population, V2, 0 to 48, higher is worse, p-value >0.05): −2.0 points
MSA-QoL Motor subscore, average difference compared to V1 ([1]; mITT population, V2, 0 to 56, higher is worse, p-value >0.05): −1.3 points
MSA-QoL non-motor subscore, average difference compared to V1 [1, 4]: −5.2 points
MSA-QoL Motor subscore, average difference compared to V1 [1, 4]: −5.6 points
MSA-QoL non-motor subscore, average difference compared to V1 [1, 5]: −4.1 points
MSA-QoL Motor subscore, average difference compared to V1 [1, 5]: −5.1 points

— patent US20240116971A1, “NMN AND DERIVATIVES FOR ITS USE IN THE TREATMENT OF DEPRESSION AND/OR ANXIETY IN PATIENTS HAVING A FORM OF PARKINSONISM” (Nuvamid SA, priority 2021, published 2024)
